{"source": "patent US11613587B2", "about": "“Combination therapy of T cell activating bispecific antigen binding molecules and PD-1 axis binding antagonists” (Hoffmann-La Roche Inc., priority 2014, dated 2023)", "key": {"[1]": {"system": "T cells in EpCAM positive tumor digests or malignant effusions", "experiment": "Ex vivo treatment of tumor samples with catumaxomab", "format": "cell-based, human", "conditions": "4 NSCLC tumor digests, 10 ng/ml, 24 h", "method": "The trifunctional TCB catumaxomab (Removab®) was obtained from Fresenius. The experimental conditions were similar as indicated above for FolR1-TCB. Briefly, EpCAM positive tumor digests or malignant effusions were cultured in the presence or absence of catumaxomab at a concentration of 10 ng/ml for 24 h. Analysis of CD8^+ and CD4^+ positive T cells (CD45+CD3+) was performed as described above.\nTo determine to which extent catumaxomab induces T cell activation and to confirm the findings described above using a second, independent T cell bispecific molecule, 4 tumor digests from patients with NSCLC were exposed to catumaxomab, a trifunctional bispecific antibody recognizing CD3 on T cells and EpCAM on tumor cells. Then, T cells were characterized by flow cytometry for expression of activation markers and T cell effector functions (FIG. 17A-D). […] Accordingly, the baseline expression of inhibitory receptors differed between the patients (FIG. 17E-H)."}, "T cells in tumor digests": {"system": "T cells in tumor digests", "experiment": "Polyclonal stimulation with anti-CD3/CD28 antibodies and PD-1 blockade", "format": "cell-based, human", "conditions": "10 μg/ml, 24 hrs"}, "SKOV3 cells [2]": {"system": "SKOV3 cells", "experiment": "Killing assay with tumor samples and CFSE-labelled Skov3 cells", "format": "cell-based", "method": "To determine the FolR1-TCB induced tumor cell killing, 3×10^4 CFSE-labelled Skov3 cells were cocultured with tumor samples in the presence or absence of FolR1-TCB at a concentration of 2 nM for 24 h in 96-well flat bottom cell culture plates. The E:T ratio (E: effector CD45+CD3+ cells; T: target FolR1^+ cells from tumor and added Skov3 cells) was adjusted to 1:1 in each well and the cell number of the added tumor samples was calculated for each sample according to prior characterization by flow cytometry. Cell death of Skov3 cells was determined by flow cytometry by measuring activated caspase 3 and the live/dead marker Live/Dead-near-IR. The assay was performed in triplicates. The FolR1-TCB mediated killing was calculated according to the following equation: % of specific killing=100−[(% of Skov3 live cells in FolR1-TCB treated sample/% of Skov3 live cells in untreated sample)×100].\nTo compare the FolR1-TCB-induced killing capacity of T-cells between tumor samples, and to exclude additional factors suppressing T-cell functionality, such as expression of PD-L1 on the tumor cells, we exogenously added CFSE-labeled FolR1^+ Skov3 cells to the tumor digests and adjusted the E:T ratio to 1:1, essentially as described above. We then measured the FolR1-TCB-induced killing of CFSE-labeled Skov3 cells, which allowed us to also include FolR1^− tumor samples into the analysis. […]"}, "[3]": {"system": "T cells in FolR1+ tumor digests or malignant effusions", "experiment": "FolR1-TCB with PD-1 blockade in tumor digests or malignant effusions (cytokine secretion)", "format": "cell-based, human", "conditions": "combined with FolR1-TCB", "method": "FIG. 38A-D: FolR1^+ tumor digests or malignant effusions were cultured for 24 h with FolR1-TCB in the presence or absence of a PD-1 blocking antibody. […] The increase in cytokine secretion upon combined FolR1-TCB and anti-PD-1 treatment compared with FolR1-TCB alone was determined in PD-1^hi scarce and abundant tumors. FIG. 38E: Tumor digests or malignant effusions were co-cultured with exogenously added fluorescently labeled Skov3 cells at an E:T ratio of 1:1 for 24 h in the presence or absence of a PD-1 blocking antibody and FolR1-TCB. The increase in specific killing by the anti-PD-1 antibody was compared in PD-1^hi scarce and abundant tumors. p-values were calculated using the unpaired Mann-Whitney test.\nAs the level of PD-1 expression on TILs correlates with the efficacy of FolR1-TCB, we analyzed whether blockade of the PD-1/PD-L1 axis in combination with FolR1-TCB treatment might be able to restore T-cell function."}, "[4]": {"system": "CD4+ and CD8+ T cells in whole blood", "experiment": "T cell activation in whole blood", "format": "cell-based, human", "conditions": "24 h after addition", "text": "FIGS. 9A-D depict graphs summarizing activation marker upregulation in whole blood.\nDP47 TCB was included as negative control."}, "[5]": {"system": "T cells in FolR1 positive tumor digests or malignant effusions", "experiment": "Ex vivo treatment of tumor samples with FolR1-TCB (T cell activation and effector function)", "format": "cell-based, human", "conditions": "24 h", "method": "FolR1 positive tumor digests or malignant effusions were thawed, washed and plated in 96-well flat bottom cell culture plates (BD Falcon) with a density of […] cells/200 μl/well in complete medium (DMEM+Sodium Pyruvate (1 mM)+MEM non essential AA (1×)+L-Glutamin (2 mM)+Penicillin/Streptomycin ([…])+2-Mercaptoethanol (50 nM)+Ciproxin (1 mg/ml)+10% human Serum). The samples were cultured in the presence or absence of FolR1-TCB or DP47 TCB at a concentration of 2 nM for 24 h. Activation of CD8^+ and CD4^+ T cells (CD45^+CD3^+) upon FolR1-TCB treatment was determined by multicolor flow cytometry by measuring the expression of the cell surface markers CD25, CD69, CD137, ICOS, PD-1 and Tim-3. Furthermore the expression of granzyme B and IFN-γ was determined by intracellular staining. […]\nWe analyzed whether the expression of inhibitory receptors could be correlated with a diminished T-cell functionality upon FolR1-TCB treatment."}, "[6]": {"system": "PBMCs co-cultured with Skov3", "experiment": "Activation of T-cells from healthy donors by FolR1-TCB (PBMC co-cultured with Skov3)", "format": "cell-based, human", "conditions": "0.6 pM to 2 nM, 24 h", "method": "FIGS. 40A-C show activation of CD8^+ T-cells upon exposure to increasing concentrations of FolR1-TCB. PBMCs were co-cultured with Skov3 cells for 24 h in the presence or absence of FolR1-TCB or the unspecific control DP-47-TCB. […] Shaded histogram: isotype control; open histogram: anti-FolR1-antibody. FIG. 40B: The expression of the activation markers CD25, CD137, and ICOS on CD8^+ T-cells was determined by flow cytometry. FIG. 40C: IFN-v.\nTo assess the effect of FolR1-TCB on T-cell activation peripheral blood mononuclear cells (PBMCs) from healthy donors were co-cultured with the FolR1^+ ovarian cancer cell line Skov3 (FIG. 40A). […] In addition, T-cells secreted IL-2, IFN-γ, and TNF."}, "SKOV3 cells [7]": {"system": "SKOV3 cells", "experiment": "T cell mediated killing (LDH release)", "format": "cell-based, human", "conditions": "SKOV3 and HT-29 cells, used concentrations", "method": "FIGS. 7A-L depict graphs summarizing T cell mediated killing of HT-29 and SKOV3 cells. FolR1 TCBs were used to test T cell mediated killing of HT-29 and SKOV3 tumor cells and upregulation of activation marker on T cells upon killing. […] DP47 TCB was included as negative control. After 48 h incubation upregulation of the activation marker CD25 and CD69 on CD8 T cells and CD4 T cells upon killing of SKOV3 (FIGS. 7E-H) or HT-29 (FIG. 7I-L) tumor cells was assessed by flow cytometry.\nOverall killing of SKOV3 cells was higher compared to HT-29 which reflects the higher expression levels of FolR1 on SKOV3 cells (FIGS. 7A-D). In line with this, a strong upregulation of the activation marker CD25 and CD69 on CD4^+ T cells and CD8^+ T cells was detected. Activation of T cells was very similar in the presence of SKOV3 cells and HT-29 cells."}, "[8]": {"target": "T1, FolR1 on Hela, Skov3, OVCAR5, HT29, MKN45 tumor cells (Homo sapiens, UniProt P15328)", "T1 construct": "endogenous in cells; host or cells: tumour cell line panel (HeLa, SKOV3, OVCAR5, HT-29; MKN-45 as FolR1-negative line)", "T1 sequence (P15328 25-257)": "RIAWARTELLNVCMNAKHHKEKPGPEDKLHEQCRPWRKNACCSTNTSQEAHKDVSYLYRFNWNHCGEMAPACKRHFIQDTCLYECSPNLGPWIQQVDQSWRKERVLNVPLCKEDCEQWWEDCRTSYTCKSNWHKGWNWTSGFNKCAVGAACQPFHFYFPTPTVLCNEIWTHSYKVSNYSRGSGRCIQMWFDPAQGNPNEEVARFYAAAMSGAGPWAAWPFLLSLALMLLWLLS", "experiment": "Binding to tumor cells with different FolR1 expression levels (flow cytometry)", "text": "FIGS. 6A-E depict graphs summarizing binding of FolR1 IgGs to cells with different FolR1 expression levels. […] DP47 IgG was included as isotype control and MKN-45 were included as FolR1 negative cell line.\nThe FolR1 TCBs were used to determine T cell mediated killing of tumor cells expressing FoLR1. A panel of potential target cell lines was used to determine FoLR1 binding sites by Qifikit analysis.\nThe used panel of tumor cells contains FolR1 high, intermediate and low expressing tumor cells and a FolR1 negative cell line.\nThe amount of bound construct is proportional to the FolR1 expression level and there is still good binding of the constructs to the FolR1 low cell line HT-29 detectable. […] DP47 TCB is an untargeted TCB and was prepared as described in WO2014/131712."}}}
{"substance": "catumaxomab", "values": [{"measurement": "catumaxomab induced T cell activation", "setting": "[1]", "result": "striking heterogeneity"}]}
{"substance": "nivolumab: PD-1 blocking antibody", "values": [{"measurement": "restoration of T cell effector function (IL-2, IFN-γ, TNF-α)", "setting": "T cells in tumor digests", "result": "only in some patients"}, {"measurement": "cytotoxic tumor cell killing upon additional PD-1 blockade", "setting": "SKOV3 cells [2]; combined with FolR1-TCB, PD-1hi scarce and abundant tumors", "result": "could neither be improved"}, {"measurement": "secretion of IFN-γ, TNF, IL-2 and perforin upon PD-1 blockade", "setting": "[3]; PD-1hi abundant tumors", "result": "failed to elicit any response"}, {"measurement": "secretion of IFN-γ, TNF, IL-2 and perforin upon PD-1 blockade", "setting": "[3]; PD-1hi scarce tumors", "result": "could be increased only in some of the PD-hi scarce tumors"}]}
{"substance": "Mov19 TCB: reference FolR1/CD3 T-cell bispecific with Mov19 binder [reference compound]", "values": [{"measurement": "upregulation of CD25 and CD69 on CD4+ and CD8+ T cells in whole blood", "setting": "[4]", "result": "No activation of T cells"}]}
{"substance": "DP47 TCB: untargeted TCB, negative control, prepared as described in WO2014/131712", "values": [{"measurement": "T cell activation", "setting": "[5]", "result": "did not induce any T cell activation"}, {"measurement": "T-cell activation (CD25, CD137, ICOS)", "setting": "[6]", "result": "did not induce any T-cell activation"}, {"measurement": "induction of tumor cell killing", "setting": "SKOV3 cells [7]", "result": "does not induce any killing"}, {"measurement": "binding to panel of tumor cell lines", "setting": "[8]", "result": "no binding"}, {"measurement": "tumor cell killing", "setting": "SKOV3 cells [2]; E:T 1:1, 24 h", "result": "did not induce any tumor cell killing"}]}
